From US12419956B2, “Controlled drug release system of photoresponsive nanocarriers, methods of making and using thereof” (THE UNIVERSITY OF HONG KONG, priority 2020, dated 2025)

Tests used:
[1] = Photocleavage under 505 nm green LED light, determined by HPLC; type: physicochemical; conditions: free DTAEA in 50% acetonitrile/H2O, 50 mW/cm^2, 1 min
Method: The photocleavage mechanism of coumarin carbamate derivatives was reported as carbocation formation following with the addition of —OH group in aqueous solutions (FIG. 6a).^9 To quantitatively measure the photocleavage rate of free DTAEA, quartz cuvettes containing DTAEA in 50% acetonitrile/H2O was irradiated with 505 nm green LED light. At predetermined time points, the remaining DTAEA and released DEAdcCM were determined by high performance liquid chromatography (HPLC). […] The similar photocleavage process in DTAEA NPs took about 5 minutes for the completely consumption of DTAEA (FIG. 6c), which was slightly slow down compared to free DTAEA in the mixture of acetonitrile and water. […] Based on the photocleavage performance of DTAEA and DTNPs, the irradiation duration was set to be no less than 5 min with 505 nm green LED light at 50 mW/cm^2.

[2] = Systemic toxicity in treated tumor-bearing mice: body weight and H&E histology; type: in vivo, BALB/c nude mice; conditions: drug administration period (Day 0 to Day 10), 5 mg/kg I.V.
Method: (§1) Generally, WERI-Rb-1 cells were injected slowly into the vitreous cavity at the right eyes of Bulb/c nude mice for the tumor implantation. […] The light irradiation was performed at the right eyes immediately after injection. […] To evaluate the biodistribution, the mice were euthanized after the above treatment, and their eyes (both sides), heart, lung, liver, spleen and kidney were further exteriorized for ex vivo fluorescence imaging. […] Seven days after the intraocular injection of WERI-Rb-1-GFP-luc cells, the luminescence signals from the cells can be determined by in vivo imaging system for in situ monitoring of orthotopic ocular tumors. […] The dosage of drug administration was precisely controlled based on the body weight of mice and set as 5 mg/kg body weight. The I.V. injection of formulations was applied every two days for five times. […] During the treatment, bioluminescence from the tumors was detected for tumor growth monitoring. […] Considering individual differences, tumor growth curves (FIG. 14b) of different groups were obtained by setting the bioluminescence intensity on the day before treatment (Day 0) as the origin and determining the quantitative changes in the subsequent days. […] The histological patterns of tumor-bearing retina and main organs were studied by hematoxylin and eosin (H&E) staining (FIG. 15 and FIG. 16).

[3] = tested on: WERI-Rb-1-GFP-luc orthotopic tumor; experiment: Therapeutic effect on orthotopic WERI-Rb-1-GFP-luc tumors, bioluminescence; type: in vivo, BALB/c nude mice; conditions: Day 25; 5 mg/kg I.V. every two days for five times; no irradiation
Method: as §1

[4] = tested on: human umbilical vein endothelial cells (HUVEC); experiment: Light-triggered cellular uptake in HUVEC cells, fluorescence microscopy; type: cell-based
Method: We further investigated the cellular uptake of the photo-released DOX by fluorescence microscopy and flow cytometry. In this work, human umbilical vein endothelial cells (HUVEC) and human retinoblastoma cells (WERI-Rb-1) were employed to investigate the cellular uptake. The cells were treated with various formulations, including free DOX, DOX/DTNPs and DOX/DTNPs+light irradiation (hv).

| Compound | DTAEA cleaved [1] | body weight decrease [2] | increase of bioluminescence intensity in eyes, compared to Day 0 [3] [folds] | red fluorescence intensity (DOX) in cells ([4]; HUVEC, no irradiation) | intracellular distribution of DOX fluorescence ([4]; without irradiation) |
| --- | --- | --- | --- | --- | --- |
| CCN(CC)c1ccc2c(c1)OC(=C(C#N)C#N)C=C2COC(=O)NCCN(CCNC(=O)OCC1=CC(=C(C#N)C#N)Oc2cc(N(CC)CC)ccc21)CCNC(=O)OCC1=CC(=C(C#N)C#N)Oc2cc(N(CC)CC)ccc21 [DTAEA, (DEAdcCM)3-TAEA] | More than 90% |  |  |  |  |
| COc1cccc2c1C(=O)c1c(O)c3c(c(O)c1C2=O)C[C@@](O)(C(=O)CO)C[C@@H]3O[C@H]1C[C@H](N)[C@H](O)[C@H](C)O1 [free DOX, doxorubicin] |  | about 10% | 64.0 | as high as the irradiated group | observed in the cell nuclei |
